Experimental data from PMC10266688 (PLOS ONE, 2023).
Several values for one entry are separate records, joined by “and”; a condition that tells them apart may be missing. Equal values may be shown once. Read-outs that look alike come from different tables or passages of the source.

Assays:
[1] = Single administration dose escalation study (MTD, body weight, clinical observations), female CD1 mice; assay type: in vivo; conditions: for Body weight change, Mean / Body weight change: day 7 vs initial weight; for Body weight change, Mean: group mean; for MTD at 7 days: mouse, in vivo, female CD1 mice
Description: Mice were dosed on day 1 and clinical condition recorded at 0.5 h, 2 h, 4 h, 6 h, and days 1–7 (S6 Table).
Gc - general condition observation
X - treatment with compound or vehicle

[2] = tested on: HeLa cells; assay: MTT cytotoxicity assay, HeLa cells, 72 h; assay type: cell-based; conditions: Homo sapiens, 72 h treatment
[3] = tested on: panel of cancer cell lines; assay: MTT cytotoxicity, broad panel of cancer cell lines and normal cells (Fig 1B); conditions: 72 h
[4] = Plasma Protein Binding (equilibrium dialysis); assay type: in vitro ADME, mouse
Description: The assay was performed in a multiple-use 96-well dialysis unit (HTD96b dialyzer). Each individual well unit consisted of 2 chambers separated by a vertically aligned dialysis membrane of predetermined pore size (MWCO 12–14 kDa). 120 μL of non-diluted plasma spiked with the compound (1 μM, final DMSO concentration 1%) was added to one chamber, and the same volume of PBS buffer pH 7.4 to the other chamber. The HTD96b dialyzer was covered with adhesive sealing film and incubated 5 h at 37°C while shaking at 100 rpm. For sample preparation, an aliquot of the contents of each chamber was mixed with the same volume of the blank opposite matrix. In order to define non-specific loss of the compound during this assay, a standard solution was created by mixing an aliquot of spiked plasma with blank buffer without dialysis. Two aliquots of the standard solution were incubated at 37°C, shaking at 100 rpm for 5 h (recovery samples). The other two aliquots were immediately diluted with acetonitrile and stored at 4°C until analysis (stability samples). All samples were diluted 5-fold with internal standard diluted in 100% methanol with subsequent plasma proteins sedimentation by centrifuging at 6000 rpm for 5 minutes. Supernatants were analyzed using LC-MS/MS. The percentage of plasma protein bound compound, recovery and stability were calculated using following equations.
Proteinbinding={(1−(arearatioinbuffer)/(arearatioinplasma)}.100%
Recovery={(arearatioinbuffer+peakareainplasma)/arearatioinrecoverysample}.100%
Stability={arearatioinrecoverysample/arearatioinstabilitysample}.100%

[5] = tested on: CHOP10 mRNA; assay: Q-PCR of CHOP10 mRNA; conditions: 1 μM, 4 h
[6] = mouse plasma, 1.0 µM, individual incubations

N#Cc1ccc(/C=C2/C(=O)/C(=C/c3ccc(C#N)cc3)C23CCNCC3)cc1 [Up284]
Body weight ([1]; IV 60 mg/kg single dose, day 6, individual mice, 60 mg/kg): 26.7 g and 24.1 g and 25.1 g
Body weight, Mean ([1]; IV 60 mg/kg single dose, day 7, group mean): 25.27 g
Body weight ([1]; IV 60 mg/kg single dose, day 7, individual mice, 60 mg/kg): 26.6 g and 23.9 g and 25.3 g
Body weight change, Mean ([1]; IV 60 mg/kg single dose): 3.48%
Body weight change ([1]; IV 60 mg/kg single dose, individual mice, 60 mg/kg): 2.31% and 5.29% and 2.85%
Clinical observation ([1]; IV 60 mg/kg, day 0, 0.5 h, individual mice, 60 mg/kg): 0
Clinical observation ([1]; IV 60 mg/kg, day 0, 2 h, individual mice): 0
Clinical observation ([1]; IV 60 mg/kg, day 0, 4 h, individual mice): 0
Clinical observation ([1]; IV 60 mg/kg, day 0, 6 h, individual mice): 0
Clinical observation ([1]; IV 60 mg/kg, day 0, time 0, individual mice): 0
Clinical observation ([1]; IV 60 mg/kg, day 1, individual mice): 0
Clinical observation ([1]; IV 60 mg/kg, day 2, individual mice): 0
Clinical observation ([1]; IV 60 mg/kg, day 3, individual mice): 0
Clinical observation ([1]; IV 60 mg/kg, day 4, individual mice): 0
Clinical observation ([1]; IV 60 mg/kg, day 5, individual mice): 0
Clinical observation ([1]; IV 60 mg/kg, day 6, individual mice): 0
Clinical observation ([1]; IV 60 mg/kg, day 7, individual mice): 0
Body weight, Mean ([1]; PO 100 mg/kg single dose, day 0, group mean): 24.70 g
Body weight ([1]; PO 100 mg/kg single dose, day 0, individual mice, 100 mg/kg): 27.5 g and 24.7 g and 21.9 g
Body weight, Mean ([1]; PO 100 mg/kg single dose, day 1, group mean): 24.30 g
Body weight ([1]; PO 100 mg/kg single dose, day 1, individual mice, 100 mg/kg): 26.4 g and 24.4 g and 22.1 g
Body weight, Mean ([1]; PO 100 mg/kg single dose, day 2, group mean): 24.77 g
Body weight ([1]; PO 100 mg/kg single dose, day 2, individual mice, 100 mg/kg): 27.0 g and 24.5 g and 22.8 g
Body weight, Mean ([1]; PO 100 mg/kg single dose, day 3, group mean): 25.10 g
Body weight ([1]; PO 100 mg/kg single dose, day 3, individual mice, 100 mg/kg): 27.2 g and 25.0 g and 23.1 g
Body weight, Mean ([1]; PO 100 mg/kg single dose, day 4, group mean): 25.30 g
Body weight ([1]; PO 100 mg/kg single dose, day 4, individual mice, 100 mg/kg): 27.9 g and 24.5 g and 23.5 g
Body weight, Mean ([1]; PO 100 mg/kg single dose, day 5, group mean): 24.77 g
Body weight ([1]; PO 100 mg/kg single dose, day 5, individual mice, 100 mg/kg): 26.9 g and 24.4 g and 23.0 g
Body weight, Mean ([1]; PO 100 mg/kg single dose, day 6, group mean): 25.50 g
Body weight ([1]; PO 100 mg/kg single dose, day 6, individual mice, 100 mg/kg): 28.4 g and 25.0 g and 23.1 g
Body weight, Mean ([1]; PO 100 mg/kg single dose, day 7, group mean): 26.10 g
Body weight ([1]; PO 100 mg/kg single dose, day 7, individual mice, 100 mg/kg): 29.3 g and 25.6 g and 23.4 g
Body weight change, Mean ([1]; PO 100 mg/kg single dose): 5.68%
Body weight change ([1]; PO 100 mg/kg single dose, individual mice, 100 mg/kg): 6.55% and 3.64%
Clinical observation ([1]; PO 100 mg/kg, day 0, 0.5 h, individual mice): 0
Clinical observation ([1]; PO 100 mg/kg, day 0, 2 h, individual mice): 0
Clinical observation ([1]; PO 100 mg/kg, day 0, 4 h, individual mice): 0
Clinical observation ([1]; PO 100 mg/kg, day 0, 6 h, individual mice): 0
Clinical observation ([1]; PO 100 mg/kg, day 0, time 0, individual mice): 0
Clinical observation ([1]; PO 100 mg/kg, day 1, individual mice): 0
Clinical observation ([1]; PO 100 mg/kg, day 2, individual mice): 0
Clinical observation ([1]; PO 100 mg/kg, day 3, individual mice): 0
Clinical observation ([1]; PO 100 mg/kg, day 4, individual mice): 0
Clinical observation ([1]; PO 100 mg/kg, day 5, individual mice): 0
Clinical observation ([1]; PO 100 mg/kg, day 6, individual mice): 0
Clinical observation ([1]; PO 100 mg/kg, day 7, individual mice): 0
Body weight, Mean ([1]; PO 200 mg/kg single dose, day 0, group mean): 24.70 g
Body weight, Mean ([1]; PO 200 mg/kg single dose, day 1, group mean): 24.90 g
Body weight, Mean ([1]; PO 200 mg/kg single dose, day 2, group mean): 25.17 g
Body weight, Mean ([1]; PO 200 mg/kg single dose, day 3, group mean): 25.07 g
Body weight, Mean ([1]; PO 200 mg/kg single dose, day 4, group mean): 25.40 g
Body weight, Mean ([1]; PO 200 mg/kg single dose, day 5, group mean): 25.33 g
Body weight, Mean ([1]; PO 200 mg/kg single dose, day 6, group mean): 25.63 g
Body weight, Mean ([1]; PO 200 mg/kg single dose, day 7, group mean): 25.87 g
Body weight ([1]; PO 200 mg/kg single dose, day 7, individual mice, 200 mg/kg): 26.3 g
Body weight change, Mean ([1]; PO 200 mg/kg single dose): 4.87%
Body weight change ([1]; PO 200 mg/kg single dose, individual mice, 200 mg/kg): 8.68% and 0.00% and 5.93%
Clinical observation ([1]; PO 200 mg/kg, day 0, 0.5 h, individual mice): 0
Clinical observation ([1]; PO 200 mg/kg, day 0, 2 h, individual mice): 0
Clinical observation ([1]; PO 200 mg/kg, day 0, 4 h, individual mice): 0
Clinical observation ([1]; PO 200 mg/kg, day 0, 6 h, individual mice): 0
Clinical observation ([1]; PO 200 mg/kg, day 0, time 0, individual mice): 0
Clinical observation ([1]; PO 200 mg/kg, day 1, individual mice): 0
Clinical observation ([1]; PO 200 mg/kg, day 2, individual mice): 0
Clinical observation ([1]; PO 200 mg/kg, day 3, individual mice): 0
Clinical observation ([1]; PO 200 mg/kg, day 4, individual mice): 0
Clinical observation ([1]; PO 200 mg/kg, day 5, individual mice): 0
Clinical observation ([1]; PO 200 mg/kg, day 6, individual mice): 0
Clinical observation ([1]; PO 200 mg/kg, day 7, individual mice): 0
MTD at 7 days ([1]; ip, read-out: MTD, single IP dose): 40 mg/kg
MTD at 7 days ([1]; iv, read-out: MTD, single IV dose (not reached at maximum feasible dose)): ≥ 60 mg/kg
MTD at 7 days ([1]; po, read-out: MTD, single PO dose (not reached at maximum feasible dose)): ≥ 200 mg/kg
IC50 [2]: 0.04 µM
cytotoxicity against normal cells [3]: relatively spared normal cells
sensitivity of HCT116 cells regardless of Tp53 status [3]: similarly sensitive
sensitivity of RPMI8226 and ANBL6 and bortezomib-resistant (-V10R) lines [3]: similarly very sensitive
% of bound compound, mean ([4]; mouse plasma, 1.0 µM): 98%
Stability, % ([4]; mouse plasma, 1.0 µM, 5 h 37°C): 109%
% of bound compound [4, 6]: 98% and 97%
Recovery, % [4, 6]: 101%
recovery at 5 h, 1 µM ([4]; mouse, non-diluted plasma, pH 7.4, mouse plasma, individual incubations): 98%
CHOP10 mRNA levels [5]: rapid upregulation
